Here are results for eight compounds from US10487093B2, “Heterocyclic compounds, in particular 2-oxo-4,4,5,5,6,6,7,7-octahydrobenzoxazole derivatives, and their use as antibacterial compounds” (priority 2016, dated 2019).

The subject of assay [1] is Haemophilus influenzae ATCC 49247. The assay can be described thus: MIC, broth microdilution (CLSI) versus planktonic bacteria. Format: cell-based. The conditions noted are these: ATCC49247; Haemophilus influenzae ATCC 49247; 16-20 h; mode of three independent experiments; read-out: MIC, Hi ATCC 49247.
Assay [2] has as its system Enterobacter cloacae NCTC 13406. Described as above. The conditions noted are these: NCTC13406; Enterobacter cloacae NCTC 13406; 16-20 h; mode of three independent experiments; read-out: MIC, Ecl NCTC 13406. Type of assay: cell-based.
For another assay, the system named is E. coli NCTC 13476. Described as above. Type of assay: cell-based. The following applies: NCTC13476; Escherichia coli NCTC 13476; 16-20 h; mode of three independent experiments; read-out: MIC, Ec NCTC 13476.
In assay [3] the test system is Pseudomonas aeruginosa ATCC 27853. Described as above. Format: cell-based. The conditions noted are these: ATCC27853; Pseudomonas aeruginosa ATCC 27853; 16-20 h; mode of three independent experiments; read-out: MIC, Pa ATCC 27853.
The subject of assay [4] is Acinetobacter baumannii ATCC 19606. The description is as above. The following applies: ATCC19606; Acinetobacter baumannii ATCC 19606; 16-20 h; mode of three independent experiments; read-out: MIC, Ab ATCC 19606. Type of assay: cell-based.
Assay [5] concerns human hepatic cell line (HepG2 ATCC HB-8065). The assay can be described thus: Human cell viability assay (CellTiter-Glo). The following applies: Homo sapiens, HepG2, 24 h, read-out: IC50 (μg/mL) HepG2. A general note: Cellular ATP, detected with luciferase, serves as a proxy for viable cell number.
A further assay relates to E. coli MG1655 S83L. Format: cell-based, Escherichia coli. The following applies: compared to the isogenic parent strain E. coli MG1655; S83L mutation on DNA gyrase subunit GyrA.
Assay [6] concerns Streptococcus pneumoniae ATCC 49619. The assay can be described thus: MIC, broth microdilution (CLSI) versus planktonic bacteria. Format: cell-based. The conditions noted are these: ATCC49619; Streptococcus pneumoniae ATCC 49619; 16-20 h; mode of three independent experiments; read-out: MIC, Sp ATCC 49619.
Assay [7] has as its system Staphylococcus aureus ATCC 29213. The description is as above. The conditions noted are these: ATCC29213; Staphylococcus aureus ATCC 29213; 16-20 h; mode of three independent experiments; read-out: MIC, Sa ATCC 29213. Type of assay: cell-based.
In another assay the test system is E. coli MG1655. Described as above. The following applies: Escherichia coli, MG1655, read-out: MIC, Ec MG1655 WT. Format: cell-based, Escherichia coli.
For assay [8], the system named is Acinetobacter baumannii NCTC 13420. Described as above. Format: cell-based. The conditions noted are these: NCTC13420; Acinetobacter baumannii NCTC 13420; 16-20 h; mode of three independent experiments; read-out: MIC, Ab NCTC 13420.
In assay [9] the test system is Escherichia coli ATCC 25922. Described as above. Type of assay: cell-based. The following applies: ATCC25922; Escherichia coli ATCC 25922; 16-20 h; mode of three independent experiments; read-out: MIC, Ec ATCC 25922.
Another assay relates to E. coli ATCC BAA-2452. The description is as above. Format: cell-based. The following applies: Escherichia coli ATCC BAA-2452; 16-20 h; mode of three independent experiments; read-out: MIC, Ec ATCC BAA 2452.
The subject of a further assay is E. coli MG1655 D87G. Format: cell-based, Escherichia coli. The following applies: compared to the isogenic parent strain E. coli MG1655; D87G mutation on DNA gyrase subunit GyrA.

In brackets after ≈: the same amount, converted by molar mass.

Take `N#Cc1ccc2ncc(=O)n(CCN[C@H]3CC[C@H]4[C@H](C3)OC(=O)N4c3ccc4c(n3)NC(=O)CO4)c2c1` [Compound 64, 4-(2-{[(3aS,6S,7aS)-2-oxo-3-{3-oxo-2H,3H,4H-pyrido[3,2-b][1,4]oxazin-6-yl}-octahydro-1,3-benzoxazol-6-yl]amino}ethyl)-3-oxo-3,4-dihydroquinoxaline-6-carbonitrile]: the MIC was less than 1 µg/mL in assay [1]; less than 1 µg/mL in assay [2]; 1 to 10 µg/mL (≈ 1.99 to 19.9 µM) in the assay on E. coli NCTC 13476; 1 to 10 µg/mL (≈ 1.99 to 19.9 µM) in [3]; 1 to 10 µg/mL (≈ 1.99 to 19.9 µM) in assay [4]; less than 1 µg/mL in [6]. Moreover, the MIC (in assay [7]; in the assay on E. coli MG1655; in assay [8]; in assay [9]; in the assay on E. coli ATCC BAA-2452) was less than 1 µg/mL throughout. Moreover, the IC50 in assay [5] was 10 to 100 µg/mL (≈ 19.9 to 199 µM). Moreover, the “Fold increase in MIC, E. coli MG1655 S83L” value in the assay on E. coli MG1655 S83L came to 0.5 fold. Moreover, the “Fold increase in MIC, E. coli MG1655 D87G” value in the assay with E. coli MG1655 D87G is 1 fold.

Take `COc1cnc2ccc(=O)n(CCN[C@H]3CC[C@H]4[C@@H](C3)OC(=O)N4c3ccc4c(n3)NC(=O)CO4)c2c1` [Compound 30, 1-(2-{[(3aS,6S,7aR)-2-oxo-3-{3-oxo-2H,3H,4H-pyrido[3,2-b][1,4]oxazin-6-yl}-octahydro-1,3-benzoxazol-6-yl]amino}ethyl)-7-methoxy-1,2-dihydro-1,5-naphthyridin-2-one]: the MIC is less than 1 µg/mL in assay [1]; 1 to 10 µg/mL (≈ 1.97 to 19.7 µM) in [2]; less than 1 µg/mL in the assay on E. coli NCTC 13476; less than 1 µg/mL in assay [3]; 1 to 10 µg/mL (≈ 1.97 to 19.7 µM) in [4]; less than 1 µg/mL in assay [6]. Besides, the MIC (in [7]; in the assay on E. coli MG1655; in assay [8]; in assay [9]; in the assay with E. coli ATCC BAA-2452) was less than 1 µg/mL throughout. In [5], the IC50 is more than 100 µg/mL. The “Fold increase in MIC, E. coli MG1655 S83L” value in the assay on E. coli MG1655 S83L was 2 fold. In addition, the “Fold increase in MIC, E. coli MG1655 D87G” value with E. coli MG1655 D87G is 2 fold.

For the compound `COc1ccc2ncc(=O)n(CCN[C@H]3CC[C@H]4[C@@H](C3)OC(=O)N4c3ccc4c(n3)NC(=O)CO4)c2n1` [Compound 35, (3aS,6S,7aR)-6-[(2-{6-methoxy-3-oxo-3H,4H-pyrido[2,3-b]pyrazin-4-yl}ethyl)amino]-3-{3-oxo-2H,3H,4H-pyrido[3,2-b][1,4]oxazin-6-yl}-octahydro-1,3-benzoxazol-2-one], the MIC (in assay [1]; in assay [2]; with E. coli NCTC 13476; in assay [3]; in assay [4]; in [6]) was less than 1 µg/mL throughout. Also, the MIC (in [7]; in the assay with E. coli MG1655; in [8]; in assay [9]; in the assay on E. coli ATCC BAA-2452) was less than 1 µg/mL in each case. Also, the IC50 in assay [5] was more than 100 µg/mL. The “Fold increase in MIC, E. coli MG1655 S83L” value in the assay with E. coli MG1655 S83L is listed as 1 fold. Further, in the assay with E. coli MG1655 D87G, the “Fold increase in MIC, E. coli MG1655 D87G” value is 2 fold.

`O=C1COc2ccc(N3C(=O)O[C@H]4C[C@@H](NCCn5c(=O)cnc6ccc(F)cc65)CC[C@@H]43)nc2N1` [Compound 84, 1-(2-{[(3aS,6S,7aS)-2-oxo-3-{3-oxo-2H,3H,4H-pyrido[3,2-b][1,4]oxazin-6-yl}-octahydro-1,3-benzoxazol-6-yl]amino}ethyl)-7-fluoro-1,2-dihydroquinoxalin-2-one]: the MIC in [1] is less than 1 µg/mL; in assay [2] it was less than 1 µg/mL; in the assay with E. coli NCTC 13476, less than 1 µg/mL; in assay [3], 1 to 10 µg/mL (≈ 2.02 to 20.2 µM); in [4], less than 1 µg/mL; in assay [6], less than 1 µg/mL. The MIC (in assay [7]; in the assay with E. coli MG1655; in [9]; in the assay with E. coli ATCC BAA-2452) was less than 1 µg/mL throughout. Besides, in [5], the IC50 lay in the range of 10 to 100 µg/mL (≈ 20.2 to 202 µM). For the same compound, the “Fold increase in MIC, E. coli MG1655 S83L” value in the assay on E. coli MG1655 S83L came to 1 fold. The “Fold increase in MIC, E. coli MG1655 D87G” value with E. coli MG1655 D87G was 1 fold.

In the case of `COc1ccc2ncc(=O)n(CCN[C@H]3CC[C@H]4[C@@H](C3)OC(=O)N4c3ccc4c(n3)NC(=O)CO4)c2c1` [Compound 24, 1-(2-{[(3aS,6S,7aR)-2-oxo-3-{3-oxo-2H,3H,4H-pyrido[3,2-b][1,4]oxazin-6-yl}-octahydro-1,3-benzoxazol-6-yl]amino}ethyl)-7-methoxy-1,2-dihydroquinoxalin-2-one], the MIC (in assay [1]; in assay [2]; in the assay on E. coli NCTC 13476; in [3]; in [4]; in assay [6]) was less than 1 µg/mL throughout. The MIC (in assay [7]; in the assay with E. coli MG1655; in [8]; in [9]; in the assay on E. coli ATCC BAA-2452) was less than 1 µg/mL throughout. For the same compound, the IC50 in assay [5] is more than 100 µg/mL. Further, the “Fold increase in MIC, E. coli MG1655 S83L” value in the assay on E. coli MG1655 S83L turned out to be 2 fold. Besides, the “Fold increase in MIC, E. coli MG1655 D87G” value in the assay with E. coli MG1655 D87G is given as 2 fold.

In the case of `N#Cc1ccc2ccc(=O)n(CCN[C@H]3CC[C@H]4[C@@H](C3)OC(=O)N4c3ccc4c(n3)NC(=O)CO4)c2n1` [Compound 15, 8-(2-{[(3aS,6S,7aR)-2-oxo-3-{3-oxo-2H,3H,4H-pyrido[3,2-b][1,4]oxazin-6-yl}-octahydro-1,3-benzoxazol-6-yl]amino}ethyl)-7-oxo-7,8-dihydro-1,8-naphthyridine-2-carbonitrile], the MIC was 1 to 10 µg/mL (≈ 1.99 to 19.9 µM) in [1]; 1 to 10 µg/mL (≈ 1.99 to 19.9 µM) in assay [2]; 1 to 10 µg/mL (≈ 1.99 to 19.9 µM) in the assay with E. coli NCTC 13476; 1 to 10 µg/mL (≈ 1.99 to 19.9 µM) in assay [3]; 1 to 10 µg/mL (≈ 1.99 to 19.9 µM) in assay [4]; less than 1 µg/mL in [6]. The MIC in assay [7] was less than 1 µg/mL; in the assay on E. coli MG1655, 1 to 10 µg/mL (≈ 1.99 to 19.9 µM); in assay [8], 1 to 10 µg/mL (≈ 1.99 to 19.9 µM); in [9] it was less than 1 µg/mL; in the assay with E. coli ATCC BAA-2452 it was 1 to 10 µg/mL (≈ 1.99 to 19.9 µM). Moreover, the IC50 in assay [5] was 10 to 100 µg/mL (≈ 19.9 to 199 µM). In addition, the “Fold increase in MIC, E. coli MG1655 S83L” value in the assay with E. coli MG1655 S83L came out at 1 fold. Further, the “Fold increase in MIC, E. coli MG1655 D87G” value with E. coli MG1655 D87G came to 1 fold.

Consider `N#Cc1cnc2ccc(=O)n(CCN[C@H]3CC[C@H]4[C@H](C3)OC(=O)N4c3ccc4c(n3)NC(=O)CO4)c2c1` [Compound 55, 5-(2-{[(3aS,6S,7aS)-2-oxo-3-{3-oxo-2H,3H,4H-pyrido[3,2-b][1,4]oxazin-6-yl}-octahydro-1,3-benzoxazol-6-yl]amino}ethyl)-6-oxo-5,6-dihydro-1,5-naphthyridine-3-carbonitrile], for which the MIC (in [1]; in assay [2]; in the assay with E. coli NCTC 13476; in assay [4]; in assay [6]; in assay [7]) was less than 1 µg/mL throughout. In addition, the MIC (in the assay on E. coli MG1655; in [8]; in assay [9]; with E. coli ATCC BAA-2452) was less than 1 µg/mL throughout. Besides, the IC50 in [5] is more than 100 µg/mL. Besides, in the assay with E. coli MG1655 S83L, the “Fold increase in MIC, E. coli MG1655 S83L” value was 1 fold. Also, the “Fold increase in MIC, E. coli MG1655 D87G” value in the assay on E. coli MG1655 D87G was 1 fold.

For the compound `N#Cc1ccc2ccc(=O)n(CCN[C@H]3CC[C@H]4[C@H](C3)OC(=O)N4c3ccc4c(n3)NC(=O)CO4)c2c1` [Compound 56, 1-(2-{[(3aS,6S,7aS)-2-oxo-3-{3-oxo-2H,3H,4H-pyrido[3,2-b][1,4]oxazin-6-yl}-octahydro-1,3-benzoxazol-6-yl]amino}ethyl)-2-oxo-1,2-dihydroquinoline-7-carbonitrile], the MIC (in [1]; in [2]; with E. coli NCTC 13476; in [4]; in [6]; in assay [7]) was less than 1 µg/mL each time. Besides, the MIC (in the assay with E. coli MG1655; in [8]; in assay [9]; in the assay on E. coli ATCC BAA-2452) was less than 1 µg/mL each time. Also, the IC50 in assay [5] was in the range of 10 to 100 µg/mL (≈ 20 to 200 µM). The “Fold increase in MIC, E. coli MG1655 S83L” value in the assay on E. coli MG1655 S83L was 1 fold. For the same compound, in the assay with E. coli MG1655 D87G, the “Fold increase in MIC, E. coli MG1655 D87G” value was found to be 2 fold.
